Legend:
Type in all cases: in vivo, human
[1] = system: subjects with advanced hematologic malignancies undergoing myeloablative alloHCT; test: Clinical study: overall survival; details: tacrolimus-only relative to sirolimus-only patients, FIG. 7H
Description: Overall survival: OS was defined as the time from the date of transplant to the date of death from any cause or, for surviving patients, to the date of last follow-up.

[2] = system: subjects with advanced hematologic malignancies undergoing myeloablative alloHCT; test: Clinical study: disease relapse and disease status; details: tacrolimus-only relative to sirolimus-only patients
Description: (§1) A clinical study was conducted in subjects with advanced hematologic malignancies undergoing myeloablative allogeneic hematopoietic cell transplantation (alloHCT).
(§2) Personnel who identified subjects for the SOC cohort were blinded as to their clinical outcomes.

[3] = system: subjects with advanced hematologic malignancies undergoing myeloablative alloHCT; test: Clinical study: chronic GVHD (NIH criteria); details: serum tacrolimus trough higher versus lower than 4 ng/ml, FIG. 9B
Description: as §1, §2

[4] = system: subjects with advanced hematologic malignancies undergoing myeloablative alloHCT; test: Clinical study: acute GVHD (MAGIC criteria)
Description: as §1, §2
Acute GVHD was staged and graded per MAGIC Standardization criteria.
Acute GVHD: Acute GVHD (aGVHD) is a significant driver of morbidity and mortality associated with alloHCT, reducing the severity and incidence of aGVHD has the potential to greatly benefit graft recipients. Acute GVHD was staged and graded per Mount Sinai Acute GvHD International Consortium (MAGIC) Standardization criteria.

[5] = system: subjects with advanced hematologic malignancies undergoing myeloablative alloHCT; test: Clinical study: GVHD and relapse-free survival, cGVHD-free survival; details: tacrolimus-only relative to sirolimus-only patients, FIG. 7G
Description: GVHD and relapse-free survival is a composite readout that can refer to survival without relapse or Grade ≥3 acute or extensive chronic GVHD.

[6] = system: CD3+ cells of donor origin; test: Donor T cell chimerism versus tacrolimus trough level; details: lower average trough tacrolimus level through day +30, p=0.0011, FIG. 9H
Description: Peripheral blood samples from subjects were also analyzed for chimerism as part of the follow-up procedures. The blood samples were processed to select for various cell populations using standard markers for each cell population. Blood was drawn from subjects that received the composition of the disclosure on day +28, day +56, day +100, day +180 and day +365 post-transplant, and the frequency of peripheral blood cells were quantified by flow cytometry (Markers used for analysis are described in Table 16).
Without wishing to be bound by a theory, it can be hypothesized that an improved chimerism due to higher tacrolimus levels may have led to the improved GVHD and survival outcomes in patients.

C=CC[C@@H]1/C=C(\C)C[C@H](C)C[C@H](OC)[C@H]2O[C@@](O)(C(=O)C(=O)N3CCCC[C@H]3C(=O)O[C@H](/C(C)=C/[C@@H]3CC[C@@H](O)[C@H](OC)C3)[C@H](C)[C@@H](O)CC1=O)[C@H](C)C[C@@H]2OC [tacrolimus]
overall survival rates [1]: improved | survival (FIG. 7E) [2]: improved | relapse rates ([2]; FIG. 7F): improved | chronic GVHD rates [3]: improvements | GVHD rates ([4]; average serum tacrolimus trough level higher than 4 ng/ml for the first 30 days post-transplant, FIG. 8A): lower GVHD rates | GVHD rates ([4]; same conditioning regimen (Bu/Cy or TBI/BFT), trough higher versus lower than 4 ng/ml, FIGS. 9C-G): improvement in GVHD rates | Acute GVHD rates ([4]; serum tacrolimus trough higher versus lower than 4 ng/ml, FIG. 9A): significant improvement | GVHD rates ([4]; tacrolimus only versus sirolimus only prophylaxis, FIGS. 7A-C): higher GVHD rates | GRFS rates [5]: improved | engraftment of donor T cells (T cell chimerism) [6]: increased engraftment of donor T cells
